Earlier results as cited in patent US20110212461A1, “PREDICTION OF CARDIOTOXICITY” (priority 2010, published 2011).

Settings: assessment positive or negative; marketed/external kinase inhibitors; from public literature and internal data

SMILES	Cardiotoxicity
COc1cc2ncnc(Nc3ccc(F)c(Cl)c3)c2cc1OCCCN1CCOCC1 [Iressa]	Negative
CNC(=O)c1cc(Oc2ccc(NC(=O)Nc3ccc(Cl)c(C(F)(F)F)c3)cc2)ccn1 [Nexavar, sorafenib]	Positive
Cc1cn(-c2cc(NC(=O)c3ccc(C)c(Nc4nccc(-c5cccnc5)n4)c3)cc(C(F)(F)F)c2)cn1 [Nilotinib]	Positive
Cc1nc(Nc2ncc(C(=O)Nc3c(C)cccc3Cl)s2)cc(N2CCN(CCO)CC2)n1 [Sprycel, dasatinib]	Positive
CCN(CC)CCNC(=O)c1c(C)[nH]c(/C=C2\C(=O)Nc3ccc(F)cc32)c1C [Sutent, sunitinib]	Positive
C#Cc1cccc(Nc2ncnc3cc(OCCOC)c(OCCOC)cc23)c1 [Tarceva]	Negative
CS(=O)(=O)CCNCc1ccc(-c2ccc3ncnc(Nc4ccc(OCc5cccc(F)c5)c(Cl)c4)c3c2)o1 [Tykerb]	Negative
COc1cc2c(Nc3ccc(Br)cc3F)ncnc2cc1OCC1CCN(C)CC1 [Zactima]	Positive
